Measured values published in patent publication CN110590914A, “一种抑制和消除幽门螺杆菌生物膜生成的蜂蜜和多肽组合物” (Anhui University of Science and Technology, priority 2019, dated 2019).
Ends that are not written are not given here.

System: 幽门螺杆菌SS1菌株
Assay: Inhibition of Helicobacter pylori biofilm formation (crystal violet staining, A595)
Type: cell-based
Settings: peptide 5, 10, 20, 40, 80μg/mL (Fig. 1)

Sequence: KRIVQRIKDIKP [实施例4]
- Concentration dependence of inhibition of biofilm formation: 随着多肽的浓度增大，对生物膜生成的抑制率不断增加
